Test results from PubChem BioAssay AID1963961 (Molecular Pharmacology Branch, DTP, NCI, 2024).

Tested on: K98450-129-R-PDC multicell spheroids, viability
Assay: Anticancer human tumor K98450-129-R-PDC patient-derived colon adenocarcinoma cell line growth inhibition [PI3K]
Details: for IC50: curve of first compound; for viability, T/C: stronger effect = lower value
How it was run: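 Combination activity was assessed by viability in multicellular tumor spheroids carrying HUVEC and MSC components. Agents were tested with PI3K inhibitors from a Cmax-based top dose (or 10 microM) downward in half-log increments.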

[1] = second compound 0.0316 µM, first compound 0.0316 µM
[2] = second compound 0.0316 µM, first compound 0.1 µM
[3] = second compound 0.1 µM, first compound 0.0316 µM
[4] = second compound 0.1 µM, first compound 0.1 µM
[5] = second compound 0.316 µM, first compound 0.0316 µM
[6] = second compound 0.316 µM, first compound 0.1 µM
[7] = second compound 1 µM, first compound 0.0316 µM
[8] = second compound 1 µM, first compound 0.1 µM
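Further: spheroids exposed to agents for seven days before read-out.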

## CC(=O)c1c(C)c2cnc(Nc3ccc(N4CCNCC4)cn3)nc2n(C2CCCC2)c1=O + Cc1nc(NC(=O)N2CCCC2C(N)=O)sc1-c1ccnc(C(C)(C)C(F)(F)F)c1
Second compound 0.0316 µM
  IC50: > 100 nM
Second compound 0.1 µM
  IC50: > 100 nM
Second compound 0.316 µM
  IC50: > 100 nM
Second compound 1 µM
  IC50: > 100 nM
Second compound 3.16 µM
  IC50: > 100 nM
Second compound 10 µM
  IC50: > 100 nM
Second compound 0.0316 µM, first compound 0.000316 µM
  viability, T/C: 110%
Second compound 0.0316 µM, first compound 0.001 µM
  viability, T/C: 101%
Second compound 0.0316 µM, first compound 0.00316 µM
  viability, T/C: 104%
Second compound 0.0316 µM, first compound 0.01 µM
  viability, T/C: 104%
[1]
  viability, T/C: 100%
[2]
  viability, T/C: 97.9%
Second compound 0.1 µM, first compound 0.000316 µM
  viability, T/C: 108%
Second compound 0.1 µM, first compound 0.001 µM
  viability, T/C: 95.2%
Second compound 0.1 µM, first compound 0.00316 µM
  viability, T/C: 97.9%
Second compound 0.1 µM, first compound 0.01 µM
  viability, T/C: 93.7%
[3]
  viability, T/C: 106%
[4]
  viability, T/C: 98%
Second compound 0.316 µM, first compound 0.000316 µM
  viability, T/C: 104%
Second compound 0.316 µM, first compound 0.001 µM
  viability, T/C: 107%
Second compound 0.316 µM, first compound 0.00316 µM
  viability, T/C: 95.3%
Second compound 0.316 µM, first compound 0.01 µM
  viability, T/C: 93.3%
[5]
  viability, T/C: 103%
[6]
  viability, T/C: 99%
Second compound 1 µM, first compound 0.000316 µM
  viability, T/C: 90%
Second compound 1 µM, first compound 0.001 µM
  viability, T/C: 92.9%
Second compound 1 µM, first compound 0.00316 µM
  viability, T/C: 91.3%
Second compound 1 µM, first compound 0.01 µM
  viability, T/C: 89.7%
[7]
  viability, T/C: 98.8%
[8]
  viability, T/C: 95.9%
Second compound 3.16 µM, first compound 0.000316 µM
  viability, T/C: 88.2%
Second compound 3.16 µM, first compound 0.001 µM
  viability, T/C: 86.8%
Second compound 3.16 µM, first compound 0.00316 µM
  viability, T/C: 84.6%
Second compound 3.16 µM, first compound 0.01 µM
  viability, T/C: 86.3%
Second compound 3.16 µM, first compound 0.0316 µM
  viability, T/C: 92.1%
Second compound 3.16 µM, first compound 0.1 µM
  viability, T/C: 86.3%
Second compound 10 µM, first compound 0.000316 µM
  viability, T/C: 79.4%
Second compound 10 µM, first compound 0.001 µM
  viability, T/C: 74.6%
Second compound 10 µM, first compound 0.00316 µM
  viability, T/C: 77.3%
Second compound 10 µM, first compound 0.01 µM
  viability, T/C: 79.8%
Second compound 10 µM, first compound 0.0316 µM
  viability, T/C: 80.9%
Second compound 10 µM, first compound 0.1 µM
  viability, T/C: 70.3%

## C=CC(=O)N1CCN(c2nc(=O)n(-c3c(C)ccnc3C(C)C)c3nc(-c4c(O)cccc4F)c(F)cc23)C(C)C1 (centres undefined) + CC(Nc1ccc2c(c1)OCCn1cc(N3C(=O)OCC3C(F)F)nc1-2)C(N)=O
Second compound 0.00316 µM
  IC50: 3530 nM
Second compound 0.01 µM
  IC50: 3980 nM
Second compound 0.0316 µM
  IC50: 3990 nM
Second compound 0.1 µM
  IC50: 3020 nM
Second compound 0.316 µM
  IC50: 2200 nM
Second compound 1 µM
  IC50: 1870 nM
Second compound 0.00316 µM, first compound 0.0316 µM
  viability, T/C: 108%
Second compound 0.00316 µM, first compound 0.1 µM
  viability, T/C: 92.8%
Second compound 0.00316 µM, first compound 0.316 µM
  viability, T/C: 95.1%
Second compound 0.00316 µM, first compound 1 µM
  viability, T/C: 76.7%
Second compound 0.00316 µM, first compound 3.16 µM
  viability, T/C: 50.8%
Second compound 0.00316 µM, first compound 10 µM
  viability, T/C: 31.1%
Second compound 0.01 µM, first compound 0.0316 µM
  viability, T/C: 108%
Second compound 0.01 µM, first compound 0.1 µM
  viability, T/C: 95.8%
Second compound 0.01 µM, first compound 0.316 µM
  viability, T/C: 110%
Second compound 0.01 µM, first compound 1 µM
  viability, T/C: 83.8%
Second compound 0.01 µM, first compound 3.16 µM
  viability, T/C: 56.5%
Second compound 0.01 µM, first compound 10 µM
  viability, T/C: 28.9%
[1]
  viability, T/C: 107%
[2]
  viability, T/C: 97.7%
Second compound 0.0316 µM, first compound 0.316 µM
  viability, T/C: 95.5%
Second compound 0.0316 µM, first compound 1 µM
  viability, T/C: 79.7%
Second compound 0.0316 µM, first compound 3.16 µM
  viability, T/C: 54.1%
Second compound 0.0316 µM, first compound 10 µM
  viability, T/C: 31%
[3]
  viability, T/C: 92.4%
[4]
  viability, T/C: 100%
Second compound 0.1 µM, first compound 0.316 µM
  viability, T/C: 94.8%
Second compound 0.1 µM, first compound 1 µM
  viability, T/C: 82.8%
Second compound 0.1 µM, first compound 3.16 µM
  viability, T/C: 48.8%
Second compound 0.1 µM, first compound 10 µM
  viability, T/C: 24.9%
[5]
  viability, T/C: 88.7%
[6]
  viability, T/C: 97.7%
Second compound 0.316 µM, first compound 0.316 µM
  viability, T/C: 107%
Second compound 0.316 µM, first compound 1 µM
  viability, T/C: 75.4%
Second compound 0.316 µM, first compound 3.16 µM
  viability, T/C: 39.3%
Second compound 0.316 µM, first compound 10 µM
  viability, T/C: 25.2%
[7]
  viability, T/C: 85.6%
[8]
  viability, T/C: 92.1%
Second compound 1 µM, first compound 0.316 µM
  viability, T/C: 83.7%
Second compound 1 µM, first compound 1 µM
  viability, T/C: 67%
Second compound 1 µM, first compound 3.16 µM
  viability, T/C: 35.8%
Second compound 1 µM, first compound 10 µM
  viability, T/C: 19%
